Tests used:
NPM-ALK-BaF3 = molecular target: T1, NPM-ALK-BaF3 (Homo sapiens, UniProt Q9UM73); assay: Growth inhibition of BaF3 cells stably transfected with kinase NPM-ALK (MTS); assay type: cell-based; conditions: compound concentration 3.3 μM, read-out: cell growth inhibition rate, NPM-ALK
T1 construct: NPM (nuclear phosphoprotein / nucleophosmin, NPM1, P06748) fusion partner; expressed in transfected cells; host or cells: BaF3; the other entry of the earlier key: NPM1 (P06748, Nucleophosmin)
Method: (§1) The specific test method is given as follows:
(§2) 2) Reagent: MTS reaction solution (containing 2 mg/mL of MTS [3-(4,5-dimethylthiazol-2-yl)-5-(3-carboxymethoxyphenyl)-2-(4-sulfophenyl)-2H-tetra zolium, inner Salt]; 100 µg/mL PES ([…])).

EML4-ALK-BaF3 = molecular target: T2, EML4-ALK-BaF3 (Homo sapiens, UniProt Q9UM73); assay: Growth inhibition of BaF3 cells stably transfected with kinase EML4-ALK (MTS); assay type: cell-based; conditions: compound concentration 3.3 μM, read-out: cell growth inhibition rate, EML4-ALK
T2 construct: EML4 (echinoderm microtubule associated protein like 4, Q9HC35) fusion partner; expressed in transfected cells; host or cells: BaF3; the other entry of the earlier key: EML4 (Q9HC35, Echinoderm microtubule-associated protein-like 4)
Method: as §1, §2

T1 sequence (Q9UM73 with tags, fused parts or gaps): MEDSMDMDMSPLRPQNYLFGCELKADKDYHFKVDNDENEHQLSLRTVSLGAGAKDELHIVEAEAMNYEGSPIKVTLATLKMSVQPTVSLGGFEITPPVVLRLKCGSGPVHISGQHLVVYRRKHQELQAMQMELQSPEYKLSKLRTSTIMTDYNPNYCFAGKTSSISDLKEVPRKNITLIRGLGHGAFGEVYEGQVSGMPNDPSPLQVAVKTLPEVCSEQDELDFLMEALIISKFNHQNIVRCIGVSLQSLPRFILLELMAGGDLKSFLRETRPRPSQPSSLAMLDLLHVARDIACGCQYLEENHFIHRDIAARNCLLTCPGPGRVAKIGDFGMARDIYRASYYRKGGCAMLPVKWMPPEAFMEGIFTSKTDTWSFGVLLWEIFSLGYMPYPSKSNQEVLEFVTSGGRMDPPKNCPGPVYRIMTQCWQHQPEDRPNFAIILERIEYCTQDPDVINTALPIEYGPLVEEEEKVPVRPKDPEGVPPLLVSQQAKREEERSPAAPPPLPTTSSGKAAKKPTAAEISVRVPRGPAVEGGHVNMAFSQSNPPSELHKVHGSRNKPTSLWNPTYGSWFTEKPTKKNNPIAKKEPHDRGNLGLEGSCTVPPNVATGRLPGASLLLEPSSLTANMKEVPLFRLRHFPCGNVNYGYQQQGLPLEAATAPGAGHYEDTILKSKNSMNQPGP
T2 sequence (Q9UM73 1058-1620 limits assumed): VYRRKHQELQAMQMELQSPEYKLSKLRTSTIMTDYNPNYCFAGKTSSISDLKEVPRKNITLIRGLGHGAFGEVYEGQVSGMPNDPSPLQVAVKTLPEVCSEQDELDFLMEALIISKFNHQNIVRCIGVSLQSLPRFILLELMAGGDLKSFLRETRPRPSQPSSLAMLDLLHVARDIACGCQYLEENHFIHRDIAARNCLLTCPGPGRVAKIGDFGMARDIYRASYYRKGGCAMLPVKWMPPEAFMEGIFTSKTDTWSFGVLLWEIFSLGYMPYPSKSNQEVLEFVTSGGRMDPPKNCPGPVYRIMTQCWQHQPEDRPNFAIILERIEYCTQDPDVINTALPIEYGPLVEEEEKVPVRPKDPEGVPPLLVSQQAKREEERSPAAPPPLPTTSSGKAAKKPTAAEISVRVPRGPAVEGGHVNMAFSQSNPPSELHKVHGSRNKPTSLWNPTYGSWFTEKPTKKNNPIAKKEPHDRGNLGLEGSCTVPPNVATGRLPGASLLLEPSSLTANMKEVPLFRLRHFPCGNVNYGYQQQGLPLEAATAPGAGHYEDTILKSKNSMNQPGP

| Compound | inhibition at 3.3 µM (NPM-ALK-BaF3) [%] | inhibition at 3.3 µM (EML4-ALK-BaF3) [%] |
| --- | --- | --- |
| CCOc1cc(N2CCN(C)CC2)ccc1Nc1nc(Nc2ccccc2C(=O)OC)c2sccc2n1 [IE-6] | 0 | 98.5 |
| COc1ccc(NC(=O)CN(C)C)cc1Nc1nc(Nc2ccccc2S(=O)(=O)C(C)C)c2sccc2n1 [IB-32] |  | 95 |
| COc1cc(N2CCC(N3CCCC3)CC2)ccc1Nc1nc(Nc2ccccc2P(C)(C)=O)c2sccc2n1 [IK-3] | 82.5 | > 99 |
| COC(=O)c1cccc(Nc2nc(Nc3cc(C)c(C4CCN(C)CC4)cc3OC(C)C)nc3ccsc23)c1 [ID-5] | 93.9 | > 99 |
| COc1cc(N2CCC(N3CCN(C)CC3)CC2)ccc1Nc1nc(Nc2ccccc2P(C)(C)=O)c2sccc2n1 [IK-2] | 82.8 | 100 |
| CCP(=O)(CC)c1ccccc1Nc1nc(Nc2ccc(N3CCN(C)CC3)cc2)nc2ccsc12 [IS-5] |  | 103 |
| COc1cc2c(cc1Nc1nc(Nc3ccccc3S(=O)(=O)C(C)C)c3sccc3n1)N(C(=O)CN1CCCC1)CC2 [IB-33] |  | 98.3 |
| CNC(=O)c1cccc(F)c1Nc1nc(Nc2ccc(N3CCC(N4CCN(C)CC4)CC3)cc2OC)nc2ccsc12 [IF-2] | 2.77 | 3.41 |
| COc1cc(N2CCN(C)CC2)ccc1Nc1nc(Nc2ccccc2[S+]([O-])C(C)C)c2sccc2n1 (stereo not shown) [IJ-4] | 88.8 | > 99 |
| COc1cc2c(cc1Nc1nc(Nc3ccccc3S(C)(=O)=O)c3sccc3n1)N(C(=O)CN(C)C)CC2 [IA-1] | 87.6 | 94.9 |
| COc1cc(N2CCC(N3CCN(C)CC3)CC2)ccc1Nc1nc(Nc2ccccc2S(C)(=O)=O)c2sccc2n1 [IA-2] | 87.6 | 98.9 |
| COc1cc(N2CCC(N3CCN(C)CC3)CC2)ccc1Nc1nc(Nc2ccccc2C(=O)NC(C)C)c2sccc2n1 [IP-1] |  | 97.4 |
| CNC(=O)c1ccccc1Nc1nc(Nc2ccc(N3CCC(N4CCN(C)CC4)CC3)cc2)nc2ccsc12 [II-6] | 36.9 | 92.9 |
| CCP(=O)(CC)c1ccccc1Nc1nc(Nc2ccc(N3CCC(N(C)C)CC3)cc2OC)nc2ccsc12 [IS-6] |  | 99.5 |
| COc1cc(C2CCN(C)CC2)c(C)cc1Nc1nc(Nc2cccc(NS(C)(=O)=O)c2)c2sccc2n1 [IG-4] | 87.6 | 97.8 |
| COc1cc2c(cc1Nc1nc(Nc3ccccc3P(C)(C)=O)c3sccc3n1)N(C(=O)CN(C)C)CC2 [IK-1] | 86.7 | > 99 |
| COc1cc(N2CCC(N(C)C)CC2)ccc1Nc1nc(Nc2ccccc2P(=O)(C(C)C)C(C)C)c2sccc2n1 [IR-5] |  | 98.3 |
| COC(=O)c1ccccc1Sc1nc(Nc2ccc(N3CCN(C)CC3)cc2OC)nc2ccsc12 [IN-3] | 12.3 | 98.8 |
| COc1cc(N2CCC(N(C)C)CC2)ccc1Nc1nc(Nc2ccccc2S(=O)(=O)C(C)C)c2sccc2n1 [IB-31] |  | 98.1 |
| COc1cc(N2CCN(C)CC2)ccc1Nc1nc(Nc2ccccc2S(C)(=O)=O)c2sccc2n1 [IA-4] | 86 | 99.6 |
| CCP(=O)(CC)c1ccccc1Nc1nc(Nc2cc3c(cc2OC)CCN3C(=O)CN(C)C)nc2ccsc12 [IS-1] |  | 98.7 |

| Compound | inhibition at 3.3 µM (NPM-ALK-BaF3) [%] | inhibition at 3.3 µM (EML4-ALK-BaF3) [%] |
| --- | --- | --- |
| COc1cc(N2CCN(C)CC2)ccc1Nc1nc(Nc2ccccc2P(C)(C)=O)c2sccc2n1 [IK-4] | 77.4 | 99.3 |
| COc1cc(N2CCC(N3CCN(C)CC3)CC2)ccc1Nc1nc(Nc2ccccc2P(=O)(C(C)C)C(C)C)c2sccc2n1 [IR-4] |  | 98.4 |
| COC(=O)c1ccccc1Nc1nc(Nc2ccc(N3CCC(O)CC3)cc2)nc2ccsc12 [IE-2] | 50.5 | 98.2 |
| COc1cc(N2CCN(C)CC2)ccc1Nc1nc(Nc2ccccc2P(=O)(C(C)C)C(C)C)c2sccc2n1 [IR-3] |  | 99.2 |
| COC(=O)c1ccccc1Sc1nc(Nc2ccc(S(N)(=O)=O)cc2)nc2ccsc12 [IN-5] | 6.73 | 30.9 |
| COc1cc(N2CCC(N3CCCC3)CC2)ccc1Nc1nc(Nc2ccccc2NS(C)(=O)=O)c2sccc2n1 [IH-6] | 84.5 | 97.8 |
| CCP(=O)(CC)c1ccccc1Nc1nc(Nc2ccc(N3CCN(C)CC3)cc2OC)nc2ccsc12 [IS-4] |  | 103 |
| COC(=O)c1cccc(Nc2nc(Nc3cc(C)c(C4CCN(C)CC4)cc3OC)nc3ccsc23)c1 [ID-6] | -24.1 | 99.9 |
| CNC(=O)c1ccccc1Nc1nc(Nc2cc(C)c(C3CCN(C)CC3)cc2OC)nc2ccsc12 [II-9] | 90 | 99.9 |
| COc1cc(N2CCC(N(C)C)CC2)ccc1Nc1nc(Nc2ccccc2S(=O)(=O)C(C)(C)C)c2sccc2n1 [IO-4] |  | 97 |
| COC(=O)c1ccccc1Sc1nc(Nc2ccc(N3CCC(N4CCN(C)CC4)CC3)cc2OC)nc2ccsc12 [IN-2] | 16.2 | 99.2 |
| COc1cc(N2CCC(N3CCCC3)CC2)ccc1Nc1nc(Nc2ccccc2[S+]([O-])C(C)C)c2sccc2n1 (stereo not shown) [IJ-3] | 84.8 | 99.9 |
| COc1cc(N2CCC(N3CCN(C)CC3)CC2)ccc1Nc1nc(Nc2ccccc2S(=O)(=O)C(C)C)c2sccc2n1 [IB-2] | 94.4 | 82.9 |
| CNC(=O)c1cccc(F)c1Nc1nc(Nc2cc3c(cc2OC)CCN3C(=O)CN(C)C)nc2ccsc12 [IF-1] | 6.16 | > 99 |
| COc1cc(N2CCC(N(C)C)CC2)ccc1Nc1nc(OCc2ccccc2S(=O)(=O)C(C)C)c2sccc2n1 [IT-5] |  | 101 |
| CCP(=O)(CC)c1ccccc1Nc1nc(Nc2ccc(N3CCC(N4CCN(C)CC4)CC3)cc2OC)nc2ccsc12 [IS-3] |  | 101 |
| CCP(=O)(CC)c1ccccc1Nc1nc(Nc2ccc(N3CCC(N4CCCC4)CC3)cc2OC)nc2ccsc12 [IS-2] |  | 98.2 |
| CC(C)P(=O)(c1ccccc1Nc1nc(Nc2ccc(N3CCN(C)CC3)cc2)nc2ccsc12)C(C)C [IR-6] |  | 98.3 |
| COc1cc(N2CCC(N(C)C)CC2)ccc1Nc1nc(Nc2ccccc2P(C)(C)=O)c2sccc2n1 [IK-6] | 90.2 | 99.3 |
| CNC(=O)c1ccccc1Nc1nc(Nc2cc(C)c(C3CCN(C)CC3)cc2OC(C)C)nc2ccsc12 [II-8] | 86.6 | > 99 |
| COc1cc(N2CCC(N(C)C)CC2)ccc1Nc1nc(Nc2ccccc2C(=O)NC(C)C)c2sccc2n1 [IP-3] |  | 99.1 |

| Compound | inhibition at 3.3 µM (NPM-ALK-BaF3) [%] | inhibition at 3.3 µM (EML4-ALK-BaF3) [%] |
| --- | --- | --- |
| COc1cc(N2CCC(N3CCN(C)CC3)CC2)ccc1Nc1nc(Nc2ccccc2[S+]([O-])C(C)C)c2sccc2n1 (stereo not shown) [IJ-2] | 87.7 | 99.3 |
| COc1cc(C2CCN(C)CC2)c(C)cc1Nc1nc(Nc2ccccc2P(C)(C)=O)c2sccc2n1 [IK-5] | 85.5 | 99.6 |
| COC(=O)c1ccccc1Sc1nc(Nc2cc(C)c(C3CCN(C)CC3)cc2OC)nc2ccsc12 [IN-7] | 70 | > 99 |
| COc1cc(N2CCC(N3CCCC3)CC2)ccc1Nc1nc(Nc2ccccc2P(=O)(C(C)C)C(C)C)c2sccc2n1 [IR-2] |  | 96.3 |
| COC(=O)c1ccccc1Sc1nc(Nc2cc3c(cc2OC)CCN3C(=O)CN(C)C)nc2ccsc12 [IN-1] | 17.7 | 100 |
| COC(=O)c1ccccc1Sc1nc(Nc2ccc(N3CCC(N4CCCC4)CC3)cc2OC)nc2ccsc12 [IN-6] | 46.7 | 98.4 |
| COc1cc(N2CCN(C)CC2)ccc1Nc1nc(Nc2ccccc2C(=O)NC(C)C)c2sccc2n1 [IP-2] |  | 97.3 |
| COC(=O)c1ccccc1Nc1nc(Nc2ccc(N3CCC(N4CCN(C)CC4)CC3)cc2)nc2ccsc12 [IE-4] | 93.6 | 96.7 |
| COc1cc(N2CCC(N3CCN(C)CC3)CC2)ccc1Nc1nc(OCc2ccccc2S(=O)(=O)C(C)C)c2sccc2n1 [IT-3] |  | 87.8 |
| COc1cc(N2CCC(N(C)C)CC2)ccc1Nc1nc(Nc2ccccc2[S+]([O-])C(C)C)c2sccc2n1 (stereo not shown) [IJ-6] | 81.9 | > 99 |
| COC(=O)c1ccccc1Sc1nc(Nc2ccc(N3CCC(O)CC3)cc2)nc2ccsc12 [IN-4] | 7.09 | 98.3 |
| COc1cc2c(cc1Nc1nc(OCc3ccccc3S(=O)(=O)C(C)C)c3sccc3n1)N(C(=O)CN(C)C)CC2 [IT-1] |  | 99.8 |
| COc1cc(N2CCC(N3CCN(C)CC3)CC2)ccc1Nc1nc(Nc2ccccc2S(=O)(=O)C(C)(C)C)c2sccc2n1 [IO-2] |  | 96 |
| COc1cc2c(cc1Nc1nc(Nc3ccccc3P(=O)(C(C)C)C(C)C)c3sccc3n1)N(C(=O)CN(C)C)CC2 [IR-1] |  | 97.5 |
| COc1cc(F)c(NC(=O)CN(C)C)cc1Nc1nc(Nc2ccccc2S(=O)(=O)C(C)C)c2sccc2n1 [IB-35] |  | 96.8 |
| COc1cc2c(cc1Nc1nc(Nc3ccccc3C(=O)N(C)C)c3sccc3n1)N(C(=O)CN(C)C)CC2 [IQ-1] |  | 96.9 |
| CC(C)S(=O)(=O)c1ccccc1COc1nc(Nc2ccc(N3CCOCC3)cc2)nc2ccsc12 [IT-4] |  | 100 |
| COc1cc2c(cc1Nc1nc(Nc3ccccc3S(=O)(=O)C(C)(C)C)c3sccc3n1)N(C(=O)CN(C)C)CC2 [IO-1] |  | 97.1 |
| COc1cc(N2CCN(C)CC2)ccc1Nc1nc(Nc2ccccc2S(=O)(=O)C(C)(C)C)c2sccc2n1 [IO-3] |  | 98.7 |
